Values quoted from earlier work in patent publication US20210349074A1, “METHOD OF TESTING TEARS AS A BIOMARKER FOR CANNABINOIDS” (priority 2020, published 2021).

Conditions: during the first two hours after using cannabis

CCCCCc1cc(O)c2c(c1)OC(C)(C)[C@@H]1CCC(C)=C[C@@H]21 [THC, Δ9-tetrahydrocannabinol]
average drop of participants' THC blood levels: 5 ng/mL
